US20230116972A1, “CD38 MODULATORS AND METHODS OF USE THEREOF” (Cytokinetics, Inc., priority 2021, published 2023)
Read-outs that look alike come from different tables or passages of the source.

What was measured:
CYP2D6 = target: T1, CYP2D6 (Homo sapiens, UniProt P10635); experiment: direct inhibition of CYP450 in human liver microsomes; assay type: in vitro ADME; settings: for activity at 3 µM / activity at 10 µM / activity at 50 µM: % of non-inhibited control, read-out: CYP2D6 T0 % activity; for IC50: estimated from 3, 10, 50 uM, read-out: CYP2D6 T0 estimated IC50
T1 construct: from tissue; host or cells: human liver microsomes (pooled in the time-dependent assay)

mouse CD38 = target: T2, mouse CD38 (Mus musculus, UniProt P56528); experiment: mouse recombinant CD38 enzyme assay (hydrolysis of NAD+); assay type: biochemical; settings: read-out: mCD38 BioChem IC50
T2 sequence (P56528 1-304): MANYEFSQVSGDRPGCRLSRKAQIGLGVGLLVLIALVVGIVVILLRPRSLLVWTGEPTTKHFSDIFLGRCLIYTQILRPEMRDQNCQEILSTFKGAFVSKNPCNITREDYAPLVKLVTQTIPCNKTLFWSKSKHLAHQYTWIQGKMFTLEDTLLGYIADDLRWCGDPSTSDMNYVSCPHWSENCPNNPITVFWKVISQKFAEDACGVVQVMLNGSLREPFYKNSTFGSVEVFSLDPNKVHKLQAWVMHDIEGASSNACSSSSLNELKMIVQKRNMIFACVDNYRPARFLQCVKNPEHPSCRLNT
Summary of the method: (§1)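 Inhibitors were titrated against purified CD38 hydrolysing NAD+ for 60 min at ambient temperature. Unconsumed substrate was quantified enzymatically via NADH-coupled resazurin reduction and fluorescence.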

human CD38 = target: T3, human CD38 (Homo sapiens, UniProt P28907); experiment: human recombinant CD38 enzyme assay (hydrolysis of NAD+); assay type: biochemical; settings: human recombinant CD38, 0.4 nM enzyme, 62.5 μM NAD+; read-out: hCD38 BioChem IC50
T3 sequence (P28907 1-300): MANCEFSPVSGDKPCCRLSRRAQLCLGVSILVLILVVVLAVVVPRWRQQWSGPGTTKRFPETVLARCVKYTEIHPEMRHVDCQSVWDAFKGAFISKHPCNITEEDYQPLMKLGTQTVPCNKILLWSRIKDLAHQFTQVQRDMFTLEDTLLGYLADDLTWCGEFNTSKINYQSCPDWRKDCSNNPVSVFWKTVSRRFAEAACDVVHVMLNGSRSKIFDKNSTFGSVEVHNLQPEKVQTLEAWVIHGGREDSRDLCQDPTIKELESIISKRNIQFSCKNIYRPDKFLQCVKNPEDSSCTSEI
Summary of the method: as §1

CYP3A4 = target: T4, CYP3A4 (Homo sapiens, UniProt P08684); experiment: time dependent inhibition of CYP450 in pooled human microsomes; assay type: in vitro ADME
T4 construct: from tissue; host or cells: human liver microsomes (pooled in the time-dependent assay)
Method: (§2) Time dependent inhibition: An assessment of the time-dependent Inhibitory potential of test compounds against the principal human cytochrome P450 isozymes was carried out using standard methods (Grimm et al, “The Conduct of in Vitro Studies to Address Time-Dependent Inhibition of Drug-Metabolizing Enzymes: A Perspective of the Pharmaceutical Research and Manufacturers of America”, Drug Metabolism and Disposition, 37 (7): 1355, 2009). […] Each compound was pre-incubated at 37° C. plus and minus NADPH for 30 min, and with 0 min pre-incubation for assessment of potential time dependent inhibition. LC-MS/MS was used to quantify metabolite formation. […] Note that, in Tables 8 and 9, the “Compound No” corresponds to the compound numbers in Table 1.

CYP2C9 = target: T5, CYP2C9 (Homo sapiens, UniProt P11712); experiment: as above; assay type: in vitro ADME
T5 construct: from tissue; host or cells: human liver microsomes (pooled in the time-dependent assay)
Method: as §2

[1] = between 30 min pre-incubation plus NADPH and 0 min

T4 sequence (P08684 whole entry): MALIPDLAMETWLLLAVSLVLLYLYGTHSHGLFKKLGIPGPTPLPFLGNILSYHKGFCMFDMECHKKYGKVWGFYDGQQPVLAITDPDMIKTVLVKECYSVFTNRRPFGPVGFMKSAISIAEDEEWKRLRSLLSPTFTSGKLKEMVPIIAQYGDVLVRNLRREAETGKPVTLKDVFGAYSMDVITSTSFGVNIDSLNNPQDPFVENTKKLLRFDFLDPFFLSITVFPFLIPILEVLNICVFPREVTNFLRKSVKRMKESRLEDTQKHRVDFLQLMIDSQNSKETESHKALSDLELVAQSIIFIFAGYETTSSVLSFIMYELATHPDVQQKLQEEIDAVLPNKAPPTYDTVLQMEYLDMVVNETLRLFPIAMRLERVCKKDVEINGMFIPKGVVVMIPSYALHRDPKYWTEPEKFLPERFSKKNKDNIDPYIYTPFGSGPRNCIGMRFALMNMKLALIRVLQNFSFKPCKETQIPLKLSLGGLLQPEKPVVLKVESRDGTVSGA
T1 sequence (P10635 whole entry): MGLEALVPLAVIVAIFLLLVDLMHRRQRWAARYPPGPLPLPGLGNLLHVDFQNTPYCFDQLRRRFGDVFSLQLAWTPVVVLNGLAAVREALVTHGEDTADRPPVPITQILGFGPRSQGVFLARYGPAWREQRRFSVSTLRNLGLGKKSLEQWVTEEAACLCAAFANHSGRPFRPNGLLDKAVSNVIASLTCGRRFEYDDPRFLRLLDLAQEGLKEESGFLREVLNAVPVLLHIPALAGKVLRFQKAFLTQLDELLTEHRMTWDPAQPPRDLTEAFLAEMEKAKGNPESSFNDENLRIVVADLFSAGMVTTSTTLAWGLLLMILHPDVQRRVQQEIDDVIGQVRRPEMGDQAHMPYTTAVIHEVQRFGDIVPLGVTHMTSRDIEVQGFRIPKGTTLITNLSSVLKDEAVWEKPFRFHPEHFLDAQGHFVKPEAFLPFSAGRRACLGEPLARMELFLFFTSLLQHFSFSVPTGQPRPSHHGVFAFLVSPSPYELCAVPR
T5 sequence (P11712 whole entry): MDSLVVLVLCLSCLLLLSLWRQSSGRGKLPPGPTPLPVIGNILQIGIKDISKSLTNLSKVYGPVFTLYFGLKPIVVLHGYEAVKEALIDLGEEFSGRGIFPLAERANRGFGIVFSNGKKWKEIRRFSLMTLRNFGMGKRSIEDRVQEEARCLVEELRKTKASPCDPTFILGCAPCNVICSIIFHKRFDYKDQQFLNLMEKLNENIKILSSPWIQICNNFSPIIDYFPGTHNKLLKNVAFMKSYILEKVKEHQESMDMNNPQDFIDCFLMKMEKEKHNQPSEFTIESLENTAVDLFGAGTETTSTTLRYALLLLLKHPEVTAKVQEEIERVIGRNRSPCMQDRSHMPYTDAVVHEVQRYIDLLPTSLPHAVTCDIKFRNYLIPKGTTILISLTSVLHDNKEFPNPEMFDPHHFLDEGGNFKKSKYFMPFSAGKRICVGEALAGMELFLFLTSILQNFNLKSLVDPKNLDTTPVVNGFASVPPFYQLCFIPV

Row | SMILES | activity at 3 µM (CYP2D6) [%] | activity at 10 µM (CYP2D6) [%] | activity at 50 µM (CYP2D6) [%] | IC50 (CYP2D6) [µM] | IC50 (mouse CD38) [µM] | IC50 (human CD38) [µM] | CYP3A4-M IC50 fold shift (CYP3A4; [1]) | CYP3A4-T IC50 fold shift (CYP3A4; [1]) | IC50 (CYP3A4; pre-incubation 0 min, read-out: CYP3A4-M IC50) [µM] | IC50 (CYP3A4; pre-incubation 0 min, read-out: CYP3A4-T IC50) [µM] | IC50 (CYP3A4; pre-incubation 30 min (NADPH), read-out: CYP3A4-M IC50) [µM] | IC50 (CYP3A4; pre-incubation 30 min (NADPH), read-out: CYP3A4-T IC50) [µM] | IC50 (CYP3A4; pre-incubation 30 min (NO NADPH), read-out: CYP3A4-M IC50) [µM] | IC50 (CYP3A4; pre-incubation 30 min (NO NADPH), read-out: CYP3A4-T IC50) [µM] | CYP2C9 IC50 fold shift (CYP2C9; [1]) | IC50 (CYP2C9; pre-incubation 0 min) [µM] | IC50 (CYP2C9; pre-incubation 30 min (NADPH)) [µM] | IC50 (CYP2C9; pre-incubation 30 min (NO NADPH)) [µM]
1 | CC(C)(O)c1ccc(NC(=O)c2nccc(-n3ccnc3)n2)cn1 [Compound 249, N-(6-(2-hydroxypropan-2-yl)pyridin-3-yl)-4-(1H-imidazol-1-yl)pyrimidine-2-carboxamide] | 104 | 103 | 87 | > 50 | 0.0452 | 0.0119 | – | – | – | – | – | – | – | – | – | – | – | –
2 | CO[C@H]1CC[C@H](NC(=O)c2nccc(-c3cncn3C)n2)CC1 [Compound 148, N-((1r,4r)-4-methoxycyclohexyl)-4-(1-methyl-1H-imidazol-5-yl)pyrimidine-2-carboxamide] | – | – | – | – | 0.023 | 0.07 | none | none | > 30 | > 30 | > 30 | > 30 | > 30 | > 30 | none | > 30 | > 30 | > 30
3 | CO[C@H]1CC[C@H](NC(=O)c2cc(C3(C)COC3)nc(-c3cncn3C)n2)CC1 [Compound 295, N-((1r,4r)-4-methoxycyclohexyl)-2-(1-methyl-1H-imidazol-5-yl)-6-(3-methyloxetan-3-yl)pyrimidine-4-carboxamide] | 95 | 79 | 36 | < 50 | 0.0036 | 0.0185 | – | – | – | – | – | – | – | – | – | – | – | –
4 | CO[C@H]1CC[C@H](NC(=O)c2cc(C3CCC(F)(F)CC3)nc(-c3cncn3C)n2)CC1 [Compound 289, 6-(4,4-difluorocyclohexyl)-N-((1r,4r)-4-methoxycyclohexyl)-2-(1-methyl-1H-imidazol-5-yl)pyrimidine-4-carboxamide] | 98 | 98 | 64 | > 50 | 0.001 | 0.007 | – | – | – | – | – | – | – | – | – | – | – | –

Further molecules by falling IC50 (mouse CD38), results first:

Row | activity at 3 µM (CYP2D6) [%] | activity at 10 µM (CYP2D6) [%] | activity at 50 µM (CYP2D6) [%] | IC50 (CYP2D6) [µM] | IC50 (mouse CD38) [µM] | IC50 (human CD38) [µM] | CYP3A4-M IC50 fold shift (CYP3A4; [1]) | CYP3A4-T IC50 fold shift (CYP3A4; [1]) | IC50 (CYP3A4; pre-incubation 0 min, read-out: CYP3A4-M IC50) [µM] | IC50 (CYP3A4; pre-incubation 0 min, read-out: CYP3A4-T IC50) [µM] | IC50 (CYP3A4; pre-incubation 30 min (NADPH), read-out: CYP3A4-M IC50) [µM] | IC50 (CYP3A4; pre-incubation 30 min (NADPH), read-out: CYP3A4-T IC50) [µM] | IC50 (CYP3A4; pre-incubation 30 min (NO NADPH), read-out: CYP3A4-M IC50) [µM] | IC50 (CYP3A4; pre-incubation 30 min (NO NADPH), read-out: CYP3A4-T IC50) [µM] | CYP2C9 IC50 fold shift (CYP2C9; [1]) | IC50 (CYP2C9; pre-incubation 0 min) [µM] | IC50 (CYP2C9; pre-incubation 30 min (NADPH)) [µM] | IC50 (CYP2C9; pre-incubation 30 min (NO NADPH)) [µM] | SMILES
5 | 103 | 86 | 47 | < 50 | 0.032 | 0.0141 | – | – | – | – | – | – | – | – | – | – | – | – | Cn1cncc1-c1ccnc(C(=O)Nc2ccc(C(C)(C)O)nc2)n1 [Compound 250, N-(6-(2-hydroxypropan-2-yl)pyridin-3-yl)-4-(1-methyl-1H-imidazol-5-yl)pyrimidine-2-carboxamide]
6 | 89 | 87 | 56 | > 50 | 0.0225 | 0.0684 | – | – | – | – | – | – | – | – | – | – | – | – | Cn1cncc1-c1ccnc(C(=O)N[C@H]2CC[C@H](O)CC2)n1 [Compound 256, N-((1r,4r)-4-hydroxycyclohexyl)-4-(1-methyl-1H-imidazol-5-yl)pyrimidine-2-carboxamide]
7 | – | – | – | – | 0.0031 | 0.0152 | – | – | – | – | – | – | – | – | – | – | – | – | CO[C@H]1CC[C@H](NC(=O)c2cc(C3CCOCC3)nc(-c3cncn3C)n2)CC1 [Compound 199, N-((1r,4r)-4-methoxycyclohexyl)-2-(1-methyl-1H-imidazol-5-yl)-6-(tetrahydro-2H-pyran-4-yl)pyrimidine-4-carboxamide]
